Active and inactive are the calls of the source. No rule for the calls is given here.

In this test the target is Lethal factor (Bacillus anthracis) (UniProt P15917). Briefly: Bacillus anthracis LF protease inhibitors, dose response, biochemical, multiplex microsphere (AID 720672). The note with it: multiplex microsphere LF protease substrate cleavage, flow cytometry.
Sequence of Lethal factor (Bacillus anthracis) (P15917 whole entry, looked up): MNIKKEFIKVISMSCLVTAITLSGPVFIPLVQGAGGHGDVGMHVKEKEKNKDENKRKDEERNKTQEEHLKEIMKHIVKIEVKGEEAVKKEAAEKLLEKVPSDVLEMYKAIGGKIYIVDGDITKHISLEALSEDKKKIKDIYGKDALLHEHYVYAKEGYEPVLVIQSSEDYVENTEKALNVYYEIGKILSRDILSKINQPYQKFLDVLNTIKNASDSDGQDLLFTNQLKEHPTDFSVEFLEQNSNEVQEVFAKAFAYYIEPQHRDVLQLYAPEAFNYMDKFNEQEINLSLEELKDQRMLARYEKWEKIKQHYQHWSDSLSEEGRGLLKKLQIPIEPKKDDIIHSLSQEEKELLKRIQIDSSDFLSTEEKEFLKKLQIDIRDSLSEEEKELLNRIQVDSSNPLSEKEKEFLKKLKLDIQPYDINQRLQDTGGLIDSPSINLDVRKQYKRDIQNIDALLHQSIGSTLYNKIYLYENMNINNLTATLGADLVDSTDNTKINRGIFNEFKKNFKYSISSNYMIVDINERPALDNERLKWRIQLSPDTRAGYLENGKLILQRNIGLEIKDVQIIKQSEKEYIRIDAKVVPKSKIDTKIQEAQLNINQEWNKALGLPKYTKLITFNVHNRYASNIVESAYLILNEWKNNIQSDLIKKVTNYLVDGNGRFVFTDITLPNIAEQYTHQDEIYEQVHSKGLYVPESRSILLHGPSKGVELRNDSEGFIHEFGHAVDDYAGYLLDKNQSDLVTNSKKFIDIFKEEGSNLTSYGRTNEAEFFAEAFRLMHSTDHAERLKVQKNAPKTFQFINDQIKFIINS
As for `CCNC(=S)Nc1ccc2nc(-c3ccccc3)c(-c3ccccc3)nc2c1`, the IC50 is > 20 µM (inactive).

For the compound `CC(Oc1ccccc1)C(=O)Nc1ccc2nc(-c3ccccc3)c(-c3ccccc3)nc2c1` (configuration not stated), the IC50 is > 20 µM (inactive).

Turning to `Cc1ccc(-c2nc3nc(-c4ccccc4)cn3nc2-c2ccc(C)cc2)cc1`, the IC50 was 6.8 µM.

On to `O=S(=O)(Nc1ccc2nc(-c3ccccc3)c(-c3ccccc3)nc2c1)C1CC1`, for which the IC50 was > 20 µM (inactive).

Consider `COc1ccc(-c2nc3nc(-c4cccc(OC)c4)cn3nc2-c2ccc(OC)cc2)cc1`, for which the IC50 was 10.1 µM.

Consider `CS(=O)(=O)c1ccc(-c2cn3nc(-c4ccccc4)c(-c4ccccc4)nc3n2)cc1`, for which the IC50 was > 20 µM (inactive).

For `CCCS(=O)(=O)Nc1ccc2nc(-c3ccccc3)c(-c3ccccc3)nc2c1`, the IC50 is > 20 µM (inactive).

With `CCC(=O)Nc1ccc2nc(-c3cccs3)c(-c3cccs3)nc2c1`, the IC50 is > 20 µM (inactive).

`O=C(Nc1ccc2nc(-c3ccccc3)c(-c3ccccc3)nc2c1)OCc1ccccc1`: the IC50 is > 20 µM (inactive).

As for `CCS(=O)(=O)Nc1ccc2nc(-c3ccccc3)c(-c3ccccc3)nc2c1`, the IC50 is > 20 µM (inactive).

`COc1ccccc1-c1cn2nc(-c3ccc(F)cc3)c(-c3ccc(F)cc3)nc2n1`: the IC50 was 5.4 µM.

On to `COc1cccc(-c2cn3nc(-c4ccc(F)cc4)c(-c4ccc(F)cc4)nc3n2)c1`, for which the IC50 was 7.5 µM.

In the case of `COc1ccc(-c2nc3nc(-c4ccccc4OC)cn3nc2-c2ccc(OC)cc2)cc1`, the IC50 was 6.1 µM.

As to `O=C(Nc1ccc2nc(-c3cccs3)c(-c3cccs3)nc2c1)C1CCCC1`, the IC50 was > 20 µM (inactive).

In the case of `Cc1ccc(-c2nc3nc(-c4ccc(C#N)cc4)cn3nc2-c2ccc(C)cc2)cc1`, the IC50 was > 20 µM (inactive).

On to `FC(F)(F)Oc1ccc(-c2cn3nc(-c4ccccc4)c(-c4ccccc4)nc3n2)cc1`, for which the IC50 is 17.9 µM.

Consider `CCNC(=O)Nc1ccc2nc(-c3cccs3)c(-c3cccs3)nc2c1`, for which the IC50 is 16.3 µM.

In the case of `COc1ccc(-c2nc3nc(-c4ccc(C)cc4)cn3nc2-c2ccc(OC)cc2)cc1`, the IC50 is > 20 µM (inactive).

Consider `CC(=O)Nc1ccc2nc(-c3ccccc3)c(-c3ccccc3)nc2c1`, for which the IC50 is > 20 µM (inactive).

For the compound `CC(C)CS(=O)(=O)Nc1ccc2nc(-c3cccs3)c(-c3cccs3)nc2c1`, the IC50 was > 20 µM (inactive).

As for `CCCCOC(=O)Nc1ccc2nc(-c3cccs3)c(-c3cccs3)nc2c1`, the IC50 is 16.4 µM.

As to `O=C(Nc1ccc2nc(-c3cccs3)c(-c3cccs3)nc2c1)C1CC1`, the IC50 was > 20 µM (inactive).

Turning to `CCCCOC(=O)Nc1ccc2nc(-c3ccccc3)c(-c3ccccc3)nc2c1`, the IC50 is > 20 µM (inactive).

Turning to `COc1ccc(-c2nc3nc(-c4cccc(F)c4)cn3nc2-c2ccc(OC)cc2)cc1`, the 50% inhibitory concentration (IC50) is 5.5 µM.

Turning to `CCCOC(=O)Nc1ccc2nc(-c3ccccc3)c(-c3ccccc3)nc2c1`, the IC50 was > 20 µM (inactive).

Consider `Cc1ccc(-c2nc3nc(-c4cccc(F)c4)cn3nc2-c2ccc(C)cc2)cc1`, for which the 50% inhibitory concentration (IC50) is 3.7 µM.

As for `N#Cc1ccc(-c2cn3nc(-c4ccc(F)cc4)c(-c4ccc(F)cc4)nc3n2)cc1`, the IC50 is > 20 µM (inactive).

As for `COc1ccc(-c2cn3nc(-c4ccc(C)cc4)c(-c4ccc(C)cc4)nc3n2)cc1`, the IC50 is > 20 µM (inactive).

Turning to `CCC(=O)Nc1ccc2nc(-c3ccccc3)c(-c3ccccc3)nc2c1`, the IC50 is > 20 µM (inactive).

`Cc1ccc(-c2nc3nc(-c4ccc(F)cc4)cn3nc2-c2ccc(C)cc2)cc1`: the half-maximal inhibitory concentration (IC50) is 5.9 µM.

Regarding `Fc1ccc(-c2cn3nc(-c4ccc(F)cc4)c(-c4ccc(F)cc4)nc3n2)cc1`, the half-inhibitory concentration (IC50) is 4 µM.

As to `O=C(Nc1ccc2nc(-c3ccccc3)c(-c3ccccc3)nc2c1)C1CCCCC1`, the IC50 is > 20 µM (inactive).

Regarding `CS(=O)(=O)c1ccc(-c2cn3nc(-c4ccc(F)cc4)c(-c4ccc(F)cc4)nc3n2)cc1`, the IC50 was > 20 µM (inactive).

In the case of `COc1ccc(-c2nc3nc(-c4ccc(OC)cc4OC)cn3nc2-c2ccc(OC)cc2)cc1`, the IC50 is > 20 µM (inactive).

For `CC(C)NC(=O)Nc1ccc2nc(-c3ccccc3)c(-c3ccccc3)nc2c1`, the IC50 is > 20 µM (inactive).

Turning to `COc1ccccc1-c1cn2nc(-c3ccccc3)c(-c3ccccc3)nc2n1`, the IC50 was > 20 µM (inactive).

As for `COc1ccc(-c2cn3nc(-c4ccc(C)cc4)c(-c4ccc(C)cc4)nc3n2)c(OC)c1`, the IC50 was > 20 µM (inactive).

`CC(C)CS(=O)(=O)Nc1ccc2nc(-c3ccccc3)c(-c3ccccc3)nc2c1`: the IC50 was > 20 µM (inactive).

With `CCNC(=O)Nc1ccc2nc(-c3ccccc3)c(-c3ccccc3)nc2c1`, the IC50 is > 20 µM (inactive).

As to `CC(C)NC(=O)Nc1ccc2nc(-c3cccs3)c(-c3cccs3)nc2c1`, the IC50 was > 20 µM (inactive).

For the compound `COc1ccc(-c2cn3nc(-c4ccc(F)cc4)c(-c4ccc(F)cc4)nc3n2)c(OC)c1`, the IC50 was 2.9 µM.

Take `COc1cccc(-c2cn3nc(-c4ccccc4)c(-c4ccccc4)nc3n2)c1`: the concentration for half-maximal inhibition (IC50) was 15.2 µM.

For `CCOC(=O)Nc1ccc2nc(-c3ccccc3)c(-c3ccccc3)nc2c1`, the IC50 is > 20 µM (inactive).

On to `Fc1cccc(-c2cn3nc(-c4ccccc4)c(-c4ccccc4)nc3n2)c1`, for which the IC50 is 11.5 µM.

Take `COc1ccc(-c2cn3nc(-c4ccc(F)cc4)c(-c4ccc(F)cc4)nc3n2)cc1`: the half-maximal inhibitory concentration (IC50) is 6.5 µM.

On to `Clc1ccc(-c2cn3nc(-c4ccccc4)c(-c4ccccc4)nc3n2)c(Cl)c1`, for which the IC50 was > 20 µM (inactive).

Turning to `O=C(Nc1ccc2nc(-c3ccccc3)c(-c3ccccc3)nc2c1)C1CCC1`, the IC50 was > 20 µM (inactive).

In the case of `CC(C)(C)C(=O)Nc1ccc2nc(-c3ccccc3)c(-c3ccccc3)nc2c1`, the IC50 was > 20 µM (inactive).

Consider `COC(=O)Nc1ccc2nc(-c3ccccc3)c(-c3ccccc3)nc2c1`, for which the IC50 is > 20 µM (inactive).

`O=C(Nc1ccc2nc(-c3cccs3)c(-c3cccs3)nc2c1)C1CCC1`: the IC50 was > 20 µM (inactive).

For the compound `CC(C)OC(=O)Nc1ccc2nc(-c3cccs3)c(-c3cccs3)nc2c1`, the IC50 was > 20 µM (inactive).

As to `COc1ccc(-c2nc3nc(-c4ccc(S(C)(=O)=O)cc4)cn3nc2-c2ccc(OC)cc2)cc1`, the IC50 was > 20 µM (inactive).

In the case of `CC(C)(C)NC(=O)Nc1ccc2nc(-c3ccccc3)c(-c3ccccc3)nc2c1`, the IC50 was > 20 µM (inactive).

For the compound `COc1ccc(-c2nc3nc(-c4ccccc4)cn3nc2-c2ccc(OC)cc2)cc1`, the IC50 was 6.3 µM.

As to `Fc1ccc(-c2cn3nc(-c4ccccc4)c(-c4ccccc4)nc3n2)cc1`, the IC50 was > 20 µM (inactive).

Turning to `COc1ccc(-c2nc3nc(-c4ccc(C#N)cc4)cn3nc2-c2ccc(OC)cc2)cc1`, the IC50 is > 20 µM (inactive).

`O=C(Nc1ccc2nc(-c3ccccc3)c(-c3ccccc3)nc2c1)NC1CCCC1`: the IC50 was > 20 µM (inactive).

Consider `COc1ccc(-c2nc3nc(-c4ccc(F)cc4)cn3nc2-c2ccc(OC)cc2)cc1`, for which the IC50 was 3.1 µM.

In the case of `Fc1ccc(-c2nc3nc(-c4ccccc4)cn3nc2-c2ccc(F)cc2)cc1`, the IC50 was 9.6 µM.

In the case of `Fc1ccc(-c2nc3nc(-c4ccc(OC(F)(F)F)cc4)cn3nc2-c2ccc(F)cc2)cc1`, the IC50 was > 20 µM (inactive).

As for `COc1cccc(-c2cn3nc(-c4ccc(C)cc4)c(-c4ccc(C)cc4)nc3n2)c1`, the concentration for half-maximal inhibition (IC50) is 4.3 µM.

Consider `COc1ccccc1-c1cn2nc(-c3ccc(C)cc3)c(-c3ccc(C)cc3)nc2n1`, for which the half-maximal inhibitory concentration (IC50) was 12.9 µM.

Regarding `O=S(=O)(Nc1ccc2nc(-c3cccs3)c(-c3cccs3)nc2c1)C1CC1`, the IC50 was > 20 µM (inactive).

For the compound `Cc1ccc(-c2nc3nc(-c4ccc(OC(F)(F)F)cc4)cn3nc2-c2ccc(C)cc2)cc1`, the IC50 is > 20 µM (inactive).

For the compound `O=C(Nc1ccc2nc(-c3ccccc3)c(-c3ccccc3)nc2c1)C1CC1`, the IC50 was > 20 µM (inactive).

As for `COc1ccc(-c2cn3nc(-c4ccccc4)c(-c4ccccc4)nc3n2)c(OC)c1`, the IC50 was > 20 µM (inactive).

With `CCCNC(=O)Nc1ccc2nc(-c3ccccc3)c(-c3ccccc3)nc2c1`, the IC50 is > 20 µM (inactive).

`N#Cc1ccc(-c2cn3nc(-c4ccccc4)c(-c4ccccc4)nc3n2)cc1`: the IC50 was > 20 µM (inactive).

Regarding `Fc1ccc(-c2nc3nc(-c4cccc(F)c4)cn3nc2-c2ccc(F)cc2)cc1`, the IC50 is 6.7 µM.

`COc1ccc(-c2cn3nc(-c4ccc(OC)cc4)c(-c4ccc(OC)cc4)nc3n2)cc1`: the IC50 is > 20 µM (inactive).

As to `COC(=O)Nc1ccc2nc(-c3cccs3)c(-c3cccs3)nc2c1`, the IC50 was > 20 µM (inactive).

As for `Cc1ccc(-c2nc3nc(-c4ccc(S(C)(=O)=O)cc4)cn3nc2-c2ccc(C)cc2)cc1`, the IC50 is > 20 µM (inactive).

Turning to `O=C(Nc1ccc2nc(-c3ccccc3)c(-c3ccccc3)nc2c1)C1CCCC1`, the IC50 was > 20 µM (inactive).

In the case of `Cc1ccc(-c2cn3nc(-c4ccc(F)cc4)c(-c4ccc(F)cc4)nc3n2)cc1`, the IC50 was 7.2 µM.

As to `Cc1ccc(-c2cn3nc(-c4ccc(C)cc4)c(-c4ccc(C)cc4)nc3n2)cc1`, the IC50 is 5.1 µM.

Regarding `CCCOC(=O)Nc1ccc2nc(-c3cccs3)c(-c3cccs3)nc2c1`, the IC50 is > 20 µM (inactive).

`O=C(Nc1ccc2nc(-c3cccs3)c(-c3cccs3)nc2c1)OCc1ccccc1`: the IC50 was > 20 µM (inactive).

Take `CC(C)OC(=O)Nc1ccc2nc(-c3ccccc3)c(-c3ccccc3)nc2c1`: the IC50 was > 20 µM (inactive).

Take `CCCS(=O)(=O)Nc1ccc2nc(-c3cccs3)c(-c3cccs3)nc2c1`: the IC50 was > 20 µM (inactive).

Regarding `COc1ccc(-c2nc3nc(-c4ccc(OC(F)(F)F)cc4)cn3nc2-c2ccc(OC)cc2)cc1`, the half-maximal inhibitory concentration (IC50) is 3.7 µM.

As for `O=C(Nc1ccc2nc(-c3cccs3)c(-c3cccs3)nc2c1)NC1CCCC1`, the IC50 is > 20 µM (inactive).

With `CCOC(=O)Nc1ccc2nc(-c3cccs3)c(-c3cccs3)nc2c1`, the IC50 was > 20 µM (inactive).
